Tests used:
Assay type in all cases: cell-based
hFP = target: T1, hFP (Homo sapiens, UniProt P43088); test: FLIPR calcium signal, FP; conditions: HEK-293(EBNA)
T1 construct: expressed in transfected cells
Method: (§1) HEK-293(EBNA) cells, stably expressing one type or subtype of recombinant human prostaglandin receptors (prostaglandin receptors expressed: hDP/Gqs5; hEP1; hEP2/Gqs5; hEP3A/Gqi5; hEP4/Gqs5; hFP; hIP; hTP), were cultured in 100 mm culture dishes in high-glucose DMEM medium containing 10% fetal bovine serum, 2 mM 1-glutamine, 250 μg/ml geneticin (G418) and 200 μg/ml hygromycin B as selection markers, and 100 units/ml penicillin G, 100 μg/ml streptomycin and 0.25 μg/ml amphotericin B.
(§2) Cells were seeded at a density of 5×10^4 cells per well in Biocoat® Poly-D-lysine-coated black-wall, clear-bottom 96-well plates (Becton-Dickinson) and allowed to attach overnight in an incubator at 37° C. Cells were then washed two times with HBSS-HEPES buffer (Hanks Balanced Salt Solution without bicarbonate and phenol red, 20 mM HEPES, pH 7.4) using a Denley Cellwash plate washer (Labsystems). After 45 minutes of dye-loading in the dark, using the calcium-sensitive dye Fluo-4 AM at a final concentration of 2 μM, plates were washed four times with HBSS-HEPES buffer to remove excess dye leaving 100 μl in each well. Plates were re-equilibrated to 37° C. for a few minutes.
(§3) Cells were excited with an Argon laser at 488 nm, and emission was measured through a 510-570 nm bandwidth emission filter (FLIPR™, Molecular Devices, Sunnyvale, Calif.). Drug solution was added in a 50 μl volume to each well to give the desired final concentration. The peak increase in fluorescence intensity was recorded for each well. On each plate, four wells each served as negative (HBSS-HEPES buffer) and positive controls (standard agonists: BW245C (hDP); PGE2 (HEP1; hEP2/Gqs5; hEP3A/Gqi5; hEP4/Gqs5); PGF2α (hFP); carbacyclin (hIP); U-46619 (hTP), depending on receptor). The peak fluorescence change in each drug-containing well was then expressed relative to the controls.
(§4) Compounds were tested in a high-throughput (HTS) or concentration-response (CoRe) format. In the HTS format, forty-four compounds per plate were examined in duplicates at a concentration of 10^−5 M. To generate concentration-response curves, four compounds per plate were tested in duplicates in a concentration range between 10^−5 and 10^−11 M. The duplicate values were averaged. In either, HTS or CoRe format each compound was tested on at least 3 separate plates using cells from different passages to give an n≧3.

hEP1 = target: T2, hEP1 (Homo sapiens, UniProt P34995); test: FLIPR calcium signal, EP1; conditions: HEK-293(EBNA)
T2 construct: expressed in transfected cells
T2 sequence (P34995 1-402): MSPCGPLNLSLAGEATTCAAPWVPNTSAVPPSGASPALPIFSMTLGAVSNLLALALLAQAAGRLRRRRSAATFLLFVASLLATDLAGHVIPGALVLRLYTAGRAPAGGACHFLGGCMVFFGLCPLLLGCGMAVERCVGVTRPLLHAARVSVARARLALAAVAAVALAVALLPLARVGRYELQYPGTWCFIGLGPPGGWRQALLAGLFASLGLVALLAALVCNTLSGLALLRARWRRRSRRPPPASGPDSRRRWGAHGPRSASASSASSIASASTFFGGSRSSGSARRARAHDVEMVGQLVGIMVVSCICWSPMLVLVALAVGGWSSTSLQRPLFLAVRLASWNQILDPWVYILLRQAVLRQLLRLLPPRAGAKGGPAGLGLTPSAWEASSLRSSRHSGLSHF
Method: as §1, §2, §3, §4

hEP3A/Gqi5 = target: T3, hEP3A/Gqi5 (Homo sapiens, UniProt P43115); test: FLIPR calcium signal, EP3; conditions: HEK-293(EBNA); for EC50: read-out: Ca2+ Signal-EC50 (nM) EP3
T3 construct: expressed in transfected cells
T3 sequence (P43115 1-390): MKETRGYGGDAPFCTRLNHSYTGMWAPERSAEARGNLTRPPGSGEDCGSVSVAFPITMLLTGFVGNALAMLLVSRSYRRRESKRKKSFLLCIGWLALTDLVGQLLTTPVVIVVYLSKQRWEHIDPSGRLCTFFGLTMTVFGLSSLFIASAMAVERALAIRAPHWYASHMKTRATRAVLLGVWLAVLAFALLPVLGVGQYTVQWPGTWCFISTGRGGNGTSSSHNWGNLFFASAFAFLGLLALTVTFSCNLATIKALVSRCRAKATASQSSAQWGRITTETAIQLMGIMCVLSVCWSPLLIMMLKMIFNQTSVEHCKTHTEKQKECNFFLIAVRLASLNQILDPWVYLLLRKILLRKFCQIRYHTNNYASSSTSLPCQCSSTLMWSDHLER
Method: as §1, §2, §3, §4

hEP4/Gqs5 = target: T4, hEP4/Gqs5 (Homo sapiens, UniProt P35408); test: FLIPR calcium signal, EP4; conditions: HEK-293(EBNA); for EC50: read-out: Ca2+ Signal-EC50 (nM) EP4
T4 construct: expressed in transfected cells
T4 sequence (P35408 whole entry): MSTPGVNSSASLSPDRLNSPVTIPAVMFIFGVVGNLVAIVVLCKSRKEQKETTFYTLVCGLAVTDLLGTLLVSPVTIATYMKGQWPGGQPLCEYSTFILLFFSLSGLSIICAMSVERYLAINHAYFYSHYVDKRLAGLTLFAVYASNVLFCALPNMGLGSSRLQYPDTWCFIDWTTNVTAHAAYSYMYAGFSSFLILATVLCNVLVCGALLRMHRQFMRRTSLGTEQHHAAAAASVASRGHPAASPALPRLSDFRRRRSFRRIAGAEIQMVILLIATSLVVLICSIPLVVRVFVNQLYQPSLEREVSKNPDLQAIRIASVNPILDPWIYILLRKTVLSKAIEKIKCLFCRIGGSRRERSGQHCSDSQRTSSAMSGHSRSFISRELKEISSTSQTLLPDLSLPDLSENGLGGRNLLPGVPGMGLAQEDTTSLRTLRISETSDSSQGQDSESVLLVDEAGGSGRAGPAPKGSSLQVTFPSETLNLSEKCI
Method: as §1, §2, §3, §4

hTP = target: T5, hTP (Homo sapiens, UniProt P21731); test: FLIPR calcium signal, TP; conditions: HEK-293(EBNA)
T5 construct: expressed in transfected cells
T5 sequence (P21731 1-343): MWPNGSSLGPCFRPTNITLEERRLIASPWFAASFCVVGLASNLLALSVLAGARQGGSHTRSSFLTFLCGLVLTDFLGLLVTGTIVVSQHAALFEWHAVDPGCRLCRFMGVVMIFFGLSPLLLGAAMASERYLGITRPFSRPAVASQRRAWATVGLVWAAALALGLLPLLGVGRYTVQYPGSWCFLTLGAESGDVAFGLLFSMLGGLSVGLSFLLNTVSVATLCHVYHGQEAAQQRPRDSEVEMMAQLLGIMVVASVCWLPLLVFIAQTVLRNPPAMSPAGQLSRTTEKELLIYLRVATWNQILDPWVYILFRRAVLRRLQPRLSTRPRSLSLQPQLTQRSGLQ
Method: as §1, §2, §3, §4

EP2 = EP2 (Homo sapiens, UniProt P43116); test: cAMP assay, HEK-EBNA cells expressing EP2; parameters: expressed in transfected cells; host or cells: HEK-EBNA; conditions: value in parentheses in EP2 column, read-out: EP2 EC50 (nM), measurement of cAMP (data in parentheses)
EP2, sequence (P43116 whole entry): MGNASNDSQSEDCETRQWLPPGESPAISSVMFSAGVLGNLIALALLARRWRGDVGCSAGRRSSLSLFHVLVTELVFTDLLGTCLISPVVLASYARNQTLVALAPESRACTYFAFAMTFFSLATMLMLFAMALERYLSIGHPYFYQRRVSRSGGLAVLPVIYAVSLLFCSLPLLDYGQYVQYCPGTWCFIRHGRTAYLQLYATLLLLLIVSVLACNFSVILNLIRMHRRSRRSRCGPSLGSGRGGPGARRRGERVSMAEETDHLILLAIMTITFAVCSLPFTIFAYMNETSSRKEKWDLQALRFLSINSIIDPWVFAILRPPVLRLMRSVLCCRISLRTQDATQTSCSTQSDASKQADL
Method: A 384-well drug plate was prepared to contain 6 test compounds, PGE2 and cAMP in 16 serial dilutions in triplicate, using a Biomek station. HEK-EBNA cells expressing a target PG receptor subtype (EP2 or EP4) were suspended in a stimulation buffer (HBSS, 0.1% BSA, 0.5 mM IBMX and 5 mM HEPES, pH 7.4) in a density of 10^4 cells/5 μl. The reaction was initiated by mixing 5 μL drug dilutions with 5 μl of HEK-EBNA cells in a well, carried out for 30 min at room temperature, and followed by the addition of 5 μl anti-cAMP acceptor beads in the control buffer with Tween-20 (25 mM NaCl, 0.03% Tween-20, 5 mM HEPES, pH7.4). After 30 min in the dark at room temperature, the mixtures were incubated with 15 μl biotinylated-cAMP/strepavidin donor beads in Lysis/Detection buffer (0.1% BSA, 0.3% Tween-20 and 5 mM HEPES, pH7.4) for 45 min at the room temperature. Fluorescence changes were read using a Fusion-alpha HT microplate reader.

T1 sequence (P43088 whole entry): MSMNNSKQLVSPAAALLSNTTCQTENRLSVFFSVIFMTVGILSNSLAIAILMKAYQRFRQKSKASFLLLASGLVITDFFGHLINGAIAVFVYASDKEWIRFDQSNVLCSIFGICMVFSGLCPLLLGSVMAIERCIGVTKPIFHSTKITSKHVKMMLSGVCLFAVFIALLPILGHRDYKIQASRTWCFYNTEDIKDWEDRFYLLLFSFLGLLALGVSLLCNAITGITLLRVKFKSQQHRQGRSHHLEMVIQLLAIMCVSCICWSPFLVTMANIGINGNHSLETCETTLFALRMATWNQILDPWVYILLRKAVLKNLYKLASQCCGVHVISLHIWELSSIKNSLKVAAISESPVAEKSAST

Row | Structure (SMILES) | Ca2+ Signal-EC50 (nM) FP (hFP) | EC50 (hEP1; read-out: Ca2+ Signal-EC50 (nM) EP1) [nM] | EC50 (hEP3A/Gqi5) [nM] | Ca2+ Signal-EC50 (nM) EP4 (hEP4/Gqs5) | Ca2+ Signal-EC50 (nM) TP (hTP) | EC50 (EP2) [nM] | Ca2+ Signal-EC50 (nM) EP1 (hEP1) | Ca2+ Signal-EC50 (nM) EP3 (hEP3A/Gqi5) | EC50 (hEP4/Gqs5) [nM]
1 | CCCCCC(O)c1ccc([C@@H]2[C@@H](CCCc3ccc(C(=O)O)s3)[C@H](Cl)C[C@H]2O)cc1 (stereo partly drawn) [Entry 2, 5-(3-{(1R,2S,3R,5R)-5-Chloro-3-hydroxy-2-[4-(1-hydroxy-hexyl)-phenyl]-cyclopentyl}-propyl)-thiophene-2-carboxylic acid] | not active | 664 | 348 | not active | not active | 2 | – | – | –
2 | CCCC1(C(O)c2cccc([C@@H]3[C@@H](Cc4cccc(CCC(=O)O)c4)[C@H](Cl)C[C@H]3O)c2)CCC1 (stereo partly drawn) [Entry 4, 3-[3-((1R,2S,3R,5R)-5-Chloro-3-hydroxy-2-{3-[hydroxy-(1-propyl-cyclobutyl)-methyl]-phenyl}-cyclopentylmethyl)-phenyl]-propionic acid] | not active | – | – | – | not active | 69 | not active | not active | > 10000
3 | CCCCCC(O)c1ccc([C@@H]2[C@@H](CCCc3ncc(C(=O)O)s3)[C@H](Cl)C[C@H]2O)cc1 (stereo partly drawn) [Entry 5, 2-(3-{(1R,2S,3R,5R)-5-Chloro-3-hydroxy-2-[4-(1-hydroxy-hexyl)-phenyl]-cyclopentyl}-propyl)-thiazole-5-carboxylic acid] | not active | – | – | – | not active | 1060 | not active | not active | > 10000
4 | CCCCCC(O)c1ccc([C@@H]2[C@@H](C/C=C\CCCC(=O)O)[C@@H](Cl)C[C@H]2O)cc1 (stereo partly drawn) [Entry 9, (Z)-7-{(1R,2S,3R,5S)-5-Chloro-3-hydroxy-2-[4-(1-hydroxy-hexyl)-phenyl]-cyclopentyl}-hept-5-enoic acid] | not active | – | 7230 | – | not active | 324 | not active | – | 947
5 | CCCCCC(O)c1ccc([C@@H]2[C@@H](CCCCCCC(=O)O)[C@H](Cl)C[C@H]2O)cc1 (stereo partly drawn) [Entry 14, 7-{(1R,2S,3R,5R)-5-Chloro-3-hydroxy-2-[4-(1-hydroxy-hexyl)-phenyl]-cyclopentyl}-heptanoic acid] | not active | – | 477 | – | not active | 76 | not active | – | > 10000
6 | O=C(O)CCC/C=C\C[C@@H]1[C@@H](c2ccc(C(O)CCC3CCCCC3)cc2)[C@H](O)C[C@H]1Cl (stereo partly drawn) [Entry 15, (Z)-7-{(1R,2S,3R,5R)-5-Chloro-2-[4-(3-cyclohexyl-1-hydroxy-propyl)-phenyl]-3-hydroxy-cyclopentyl}-hept-5-enoic acid] | not active | – | 2220 | not active | not active | 176 | not active | – | –
7 | O=C(O)CCCCCC[C@@H]1[C@@H](c2ccc(C(O)CCC3CCCCC3)cc2)[C@H](O)C[C@H]1Cl (stereo partly drawn) [Entry 16, 7-{(1R,2S,3R,5R)-5-Chloro-2-[4-(3-cyclohexyl-1-hydroxy-propyl)-phenyl]-3-hydroxy-cyclopentyl}-heptanoic acid] | not active | – | 1710 | not active | not active | 5260 | not active | – | –
8 | O=C(O)CCCCCC[C@@H]1[C@@H](c2ccc(C(O)CC3CCCCC3)cc2)[C@H](O)C[C@H]1Cl (stereo partly drawn) [Entry 18, 7-{(1R,2S,3R,5R)-5-Chloro-2-[4-(2-cyclohexyl-1-hydroxy-ethyl)-phenyl]-3-hydroxy-cyclopentyl}-heptanoic acid] | not active | – | – | – | not active | 2660 | not active | not active | > 10000
9 | O=C(O)CCCCCC[C@@H]1[C@@H](c2ccc(C(O)Cc3ccccc3)cc2)[C@H](O)C[C@H]1Cl (stereo partly drawn) [Entry 22, 7-{(1 R,2S,3R,5R)-5-Chloro-3-hydroxy-2-[4-(1-hydroxy-2-phenyl-ethyl)-phenyl]-cyclopentyl}-heptanoic acid] | not active | – | – | – | not active | 59 | not active | not active | 15800
10 | O=C(O)CCC/C=C\C[C@@H]1[C@@H](c2ccc(C(O)CCc3ccccc3)cc2)[C@H](O)C[C@H]1Cl (stereo partly drawn) [Entry 23, (Z)-7-{(1R,2S,3R,5R)-5-Chloro-3-hydroxy-2-[4-(1-hydroxy-3-phenyl-propyl)-phenyl]-cyclopentyl}-hept-5-enoic acid] | not active | – | 13700 | – | not active | 125 | not active | – | > 10000

From patent publication US7585895B2, “Therapeutic substituted cyclopentanes” (Allergan, Inc., priority 2005, dated 2009)
